Data reported in patent publication US20160017326A1, “MICRORNAS AS FUNCTIONAL MEDIATORS AND BIOMARKERS OF BONE METASTASIS” (THE TRUSTEES OF PRINCETON UNIVERSITY, priority 2013, published 2016).

Columns and labels:
[1] = test system: RAW264.7 cells; test: RANKL-induced osteoclast differentiation, TRAP staining; format: cell-based, murine; details: all models tested
From the text: HeLa and RAW264.7 cells (American Type Culture Collection, ATCC) were maintained in Dulbecco's modified Eagle's medium (DMEM) supplemented with 10% fetal bovine serum (FBS), penicillin/streptomycin (GIBCO), and fungizone. MOCP-5 cells were maintained in αMEM with 10% FBS and antibiotics. MDA-MB-231 parental cells (ATCC) and all sublines (SCP2, SCP4, SCP6, SCP28, SCP46) were maintained in DMEM with 10% FBS and antibiotics. The murine 4T1 and 4T1.2 cells, and human TSU-Pr1, and TSU-PR1-B2 cells were similarly maintained in DMEM with 10% FBS and antibiotics. For osteoclast differentiation assays, cells were treated with indicated concentration of RANKL in DMEM plus 10% FBS, with media changes performed every 2 days. Primary osteoclasts were isolated from bone marrow cells flushed from the tibia of 6-week-old wild type Balb/c mice and filtered through a […] cell-strainer before overnight culture in aMEM with 10% FBS. The following day 1×10^6 non-adherent cells were plated in 6-well plates supplemented with 50 ng/mL M-CSF for 2 days, followed by 50 ng/mL RANKL for an additional 4-5 days, with media changes every 2 days. Human osteoclasts were obtained from Lonza (2T-110) and differentiated by treatment with 33 ng/ml M-CSF and 66 ng/ml RANKL. CM was collected from the indicated sub-confluent tumor cells grown in DMEM with […] for 24 hours. The CM was passed through a 0.2 μm filter before addition to 1×10^5 RAW264.7 or MOCP-5 cells in a 6-well plate. The media was replaced with fresh CM daily. Cells were TRAP stained on day 6 using a leukocyte acid phosphatase kit (Sigma) and TRAP^+-multineucliated cells were quantified as mature osteoclasts. […]

[2] = test system: Balb/c mice; test: Systemic pre-miRNA treatment of healthy mice: X-ray, microCT, histology; format: in vivo, mouse; details: for number of osteoclasts relative to bone surface area (TRAP): 10 μg pre-miRNA i.v. weekly for four weeks; for osteoclast activity in vivo: intravenous injection
From the text: (§1) Hindlimb bones were excised from mice at the end point of each experiment, immediately following X-ray and BLI. Hind limb bones were fixed in 10% neutral-buffered formalin, washed and decalcified in a solution of 10% EDTA for 2 weeks. One limb from each mouse was stored in 70% ethanol for μCT analysis and Von Kossa staining, while the other limb was embedded in paraffin for hematoxylin and eosin (H&E), tartrate-resistant acid phosphatase (TRAP), or immunohistochemical staining. Non-decalcified sections were embedded in resin using the Osteo-bed Bone Embedding Kit (Sigma Aldrich, EM0200) before sectioning, followed by Von Kossa staining. Briefly, sections were rehydrated to H2O, followed by submersion in 1% silver nitrate and exposure to UV light for 5 minutes. Sections were then incubated in 2.5% Sodium Thiosulphate, followed by counterstaining with Nuclear Fast Red and dehydration through Xylene. Histomorphometric analysis was performed on H&E stained bone metastasis sections using the Zeiss Axiovert 200 microscope and the AxioVision software version 4.6.3 SP1. For quantitative analysis of lesion area, a 5× objective was used to focus on the tumor region of interest and images were acquired using an AxioCamICc3 camera set to an exposure of 50 ms. Lesions that were larger than the field of view were quantified by acquiring multiple images to encompass the entire lesion and combined in Adobe Photoshop CS5. Lesion area was quantified by outlining the region(s) of interest and quantifying lesion area. Osteoclast number was assessed as multinucleated TRAP^+ cells along the tumor-bone interface and reported as number/mm of interface as previously reported (Sethi et al., 2011). Immunohistochemical analysis was performed with heat-induced antigen retrieval and an osteocalcin antibody (ABcam, AB93876). A biotinylated secondary antibody was used with Vectastain ABC Kit (Vector Laboratories) and DAB detection kit (Zymed) to reveal the positively stained cells; nuclei were counterstained with hematoxylin
(§2) Anesthetized mice were placed on singlewrapped films (X-OMAT AR, Eastman Kodak) and exposed to X-ray radiography at 35 kV for 15 s using a MX-20 Faxitron instrument. Films were developed using a Konica SRX-101A processor. Changes in bone remodeling and osteolytic lesions (radiolucent lesions) in the hindlimbs of mice were identified and quantified using the ImageJ software (National Institutes of Health)
Femurs and tibias were scanned using the INVEON PET/CT (Siemens Healthcare) at the Preclinical Imaging Shared Resource of Cancer Institute of New Jersey. The X-Ray tube settings were 80 kV and 500 μA and images were acquired at the highest resolution without CCD binning, resulting in a voxel size of 9.44 μm. A 0.66° rotation step through a 195° angular range with 6500 msec exposure was used. The images were reconstructed with Beam Hardening Correction and Hounsfield calibration before being analyzed using the INVEON Research Workplace software (Siemens Healthcare). After processing with a 3D Gaussian filter to reduce noise ROI's were manually segmented that corresponded to the cortical and trabecular bone regions. Cortical regions of interest comprised of 470 μm thick regions (50 slices, 9.4 μm thickness for each slice) located 3 mm distal to the growth plate, while 300 μm thick trabecular sections began 0.27 mm distal to the growth plate.
To evaluate the capacity for these miRNAs to inhibit mouse osteoclast function in vivo, 10 μg of pre-miRNA were injected into the lateral tail-vein of Balb/c mice weekly for four weeks. […] FIG. 6A illustrates representative X-ray, μCT and histological images for TRAP, H&E, Von Kossa, or osteocalcin staining of bones from mice treated with miR-33a, miR-133a, miR-141, miR-190 and miR-219 compared to non-treated control. Regions of interest for trabecular and cortical bone scan and analysis are marked by dashed lines. Scale bar indicates 200 μm, n=6. […]

[3] = test system: SCP28 breast cancer cells; test: Experimental bone metastasis: intracardiac SCP28 cells in nude mice, BLI, X-ray, histology; format: in vivo, mouse; details: for osteolytic bone lesions (X-ray): hindlimbs, pre-miRNA treated; for TRAP+ osteoclast number: histology, tumor-bone interface; for hind-limb tumor burden / metastatic progression by BLI: pre-miRNA 10 μg/mouse i.v. before and once per week after SCP28 inoculation; for osteolytic bone metastasis: summary statement
From the text: as §1, §2
All procedures involving mice and experimental protocols were approved by Institutional Animal Care and Use Committee (IACUC) of Princeton University. For bone metastasis studies, 1×10^5 tumor cells were injected into the left cardiac ventricle of anesthetized female athymic Ncr-nu/nu. MiRNA precursors (10 μg/mouse in 100 μl PBS, Applied Biosystems) and Zometa (100 μg/kg) were injected intravenously. Development of metastases was monitored by measuring photon flux of BLI signals in the hindlimbs of mice after retro-orbital injection of 75 mg/kg D-Luciferin and image acquisition using the Xenogen IVIS 200 Imaging System. Data were normalized to the signal on day 0. X-ray examination was performed as previously described (Kang et al., 2003).
After further validating the ability of highly metastatic SCP28 to induce osteoclastogenesis in MOCP5 cells, SCP28 were used for analyzing the effect of miRNAs on bone metastasis development in mice. FIG. 7E illustrates representative images of MOCP-5 cells treated with MDA-MB-231 and SCP28 CMs. Scale bar represents 200 μm. FIGS. 7F and 7G illustrate quantification of osteoclast number and nuclei per osteoclast after MOCP-5 cells were treated with indicated CM as in FIG. 7C. Results were statistically significant with p<0.001 (***) as assessed by Student's t test. Nude mice were systemically treated with control or experimental pre-miRNAs immediately before, and once per week subsequently, after inoculation with SCP28 cells via intracardiac injection. […]

Substance	osteoclast maturation and activity [1]	number of osteoclasts relative to bone surface area (TRAP) [2]	osteoclast activity in vivo [2]	osteolytic bone lesions (X-ray) [3]	TRAP+ osteoclast number [3]	hind-limb tumor burden / metastatic progression by BLI [3]	osteolytic bone metastasis [3]
miR-141: miRNA, SEQ ID NO: 69; delivered as pre-miRNA precursor; targets Mitf and Calcr (UAACACUGUCUGGUAACGAUGU; delivered as pre-miRNA precursor, chemistry not given here; listed as Homo sapiens)	strongly inhibit	significant decrease	significantly reduced	decreased bone lesions	significant decrease	significant decrease in metastatic burden	capable of inhibiting
miR-190: miRNA, SEQ ID NO: 64; delivered as pre-miRNA precursor; targets Calcr (UGAUAUGUUUGAUAUAUUAGGU; delivered as pre-miRNA precursor, chemistry not given here; listed as Homo sapiens)	Partial inhibition	–	significantly reduced	significant bone degradation	significant decrease	no effect	no measurable effect
miR-219: miRNA, SEQ ID NO: 66; delivered as pre-miRNA precursor; targets Mitf and Traf6 (UGAUUGUCCAAACGCAAUUCU; delivered as pre-miRNA precursor, chemistry not given here; listed as Homo sapiens)	strongly inhibit	significant decrease	significantly reduced	decreased bone lesions	significant decrease	significant decrease in metastatic burden	capable of inhibiting
miR-133a: miRNA, SEQ ID NO: 61; delivered as pre-miRNA precursor; targets Mitf and Mmp14 (UUUGGUCCCCUUCAACCAGCUA; delivered as pre-miRNA precursor, chemistry not given here; listed as Homo sapiens)	strongly inhibit	–	significantly reduced	significant bone degradation	–	no effect	no measurable effect
